Measured values published in ChEMBL document CHEMBL5634100, “Novel spiro[pyrrolidine-2,3'-quinoline]-2'-one derivatives containing piperazine fragment as potential chitin synthase inhibitors and antifungal agents: Design, synthesis and biological evaluation” (Eur J Med Chem, 2023).
Values after ≈ are worked out from the molar mass of the structure shown. Numbered stars: 1 amine (or outer) side, 2 acyl side, 3 side chain; on linkers, the order of the positions; unused ones are H or OH. Bridge positions count the residues as written; N and C are the ends. Square brackets hold non-standard residues; d marks the D form. Peptide text beside a SMILES is read from it. * marks the point of attachment. hTyr(3S-OH,4S-OH,3'-OSO3H) = N[C@H](C(=O)O)[C@H](O)[C@@H](O)c1ccc(O)c(OS(=O)(=O)O)c1; Orn(4R-OH,5R-OH) = O=C([C@H](C[C@@H](O)[C@@H](O)N[*:3])N[*:1])[*:2]; Pro(3S-OH,4S-Me) = C[C@H]1CN[C@H](C(=O)O)[C@H]1O; X1 = CCCCCOc1ccc(-c2cc(-c3ccc(C(=O)*)cc3)no2)cc1; Gln(3R-OH) = NC(=O)C[C@@H](O)[C@H](N)C(=O)O; Hyp = O=C(O)[C@@H]1C[C@@H](O)CN1

Assays:
[1] = tested on: Candida tropicalis; assay: Inhibition of Candida tropicalis ATCC 750 chitin synthase using UDP-GlcNAc as substrate at 300 ug/ml by TMB based microplate analyzer relative to control; conditions: dose 300.0 µg/ml
[2] = Inhibition of Candida tropicalis ATCC 750 chitin synthase using UDP-GlcNAc as substrate by TMB based microplate analyzer
[3] = tested on: Candida albicans; assay: Antimicrobial activity against Candida albicans ATCC 76615 incubated for 24 hrs by two fold serial dilution method; assay type: functional
[4] = tested on: Aspergillus flavus; assay: Antimicrobial activity against Aspergillus flavus ATCC 16870 incubated for 24 hrs by two fold serial dilution method; assay type: functional
[5] = tested on: Aspergillus fumigatus; assay: Antimicrobial activity against Aspergillus fumigatus GIMCC 3.19 incubated for 24 hrs by two fold serial dilution method; assay type: functional
[6] = tested on: Cryptococcus neoformans; assay: Antimicrobial activity against Cryptococcus neoformans ATCC 32719 incubated for 24 hrs by two fold serial dilution method; assay type: functional
[7] = tested on: Candida albicans; assay: Antimicrobial activity against Candida albicans ATCC 76615 assessed as inhibition of cell wall synthesis in presence of sorbitol; assay type: functional
[8] = tested on: Aspergillus flavus; assay: Antimicrobial activity against Aspergillus flavus ATCC 16870 assessed as inhibition of cell wall synthesis in presence of sorbitol; assay type: functional
[9] = tested on: Aspergillus fumigatus; assay: Antimicrobial activity against Aspergillus fumigatus GIMCC 3.19 assessed as inhibition of cell wall synthesis in presence of sorbitol; assay type: functional
[10] = tested on: Cryptococcus neoformans; assay: Antimicrobial activity against Cryptococcus neoformans ATCC 32719 assessed as inhibition of cell wall synthesis in presence of sorbitol; assay type: functional
[11] = tested on: Candida albicans; assay: Antimicrobial activity against fluconazole-resistant Candida albicans ATCC 76615R incubated for 24 hrs by two fold serial dilution method; assay type: functional
[12] = tested on: Aspergillus flavus; assay: Antimicrobial activity against Fluconazole-resistant Aspergillus flavus ATCC 16870R incubated for 24 hrs by two fold serial dilution method; assay type: functional
[13] = tested on: Aspergillus fumigatus; assay: Antimicrobial activity against Fluconazole-resistant Aspergillus fumigatus GIMCC 3.19R incubated for 24 hrs by two fold serial dilution method; assay type: functional
[14] = tested on: Cryptococcus neoformans; assay: Antimicrobial activity against Fluconazole-resistant Cryptococcus neoformans ATCC 32719R incubated for 24 hrs by two fold serial dilution method; assay type: functional
[15] = tested on: Candida albicans; assay: Antimicrobial activity against micafungin-resistant Candida albicans ATCC 76615R incubated for 24 hrs by two fold serial dilution method; assay type: functional

| SMILES | inhibition [1] [%] | IC50 [2] [µM] | MIC [3] [µg/mL] | MIC [4] [µg/mL] | MIC [5] [µg/mL] | MIC [6] [µg/mL] | MIC [7] [µg/mL] | MIC [8] [µg/mL] | MIC [9] [µg/mL] | MIC [10] [µg/mL] | MIC [11] [µg/mL] | MIC [12] [µg/mL] | MIC [13] [µg/mL] | MIC [14] [µg/mL] | MIC [15] [µg/mL] |
| --- | --- | --- | --- | --- | --- | --- | --- | --- | --- | --- | --- | --- | --- | --- | --- |
| O=C(c1cc(Cl)ccc1Cl)N1CCN(CC(=O)N2CCCC23Cc2ccccc2NC3=O)CC1 (stereo not given) | 67.6 | 180 | 4 (≈ 7.98 µM) | 8 (≈ 16 µM) | 8 (≈ 16 µM) | 8 (≈ 16 µM) | 64 | 32 | 64 | 128 | 64 (≈ 128 µM) | 64 (≈ 128 µM) | 64 (≈ 128 µM) | 64 (≈ 128 µM) | 32 (≈ 63.8 µM) |
| Cc1ccc(C(=O)N2CCN(CC(=O)N3CCCC34Cc3ccccc3NC4=O)CC2)cc1 (stereo not given) | 52.3 |  | 16 (≈ 35.8 µM) | 16 (≈ 35.8 µM) | 32 (≈ 71.7 µM) | 64 (≈ 143 µM) |  |  |  |  |  |  |  |  |  |
| CCCCCOc1ccc(-c2cc(-c3ccc(C(=O)N[C@H]4C[C@@H](O)[C@@H](O)NC(=O)[C@@H]5[C@@H](O)[C@@H](C)CN5C(=O)[C@H]([C@H](O)CC(N)=O)NC(=O)[C@H]([C@H](O)[C@@H](O)c5ccc(O)c(OS(=O)(=O)O)c5)NC(=O)[C@@H]5C[C@@H](O)CN5C(=O)[C@H]([C@@H](C)O)NC4=O)cc3)no2)cc1 [MICAFUNGIN] (X1-[Orn(4R-OH,5R-OH)]T[Hyp][hTyr(3S-OH,4S-OH,3'-OSO3H)][Gln(3R-OH)][Pro(3S-OH,4S-Me)]; lactam 1-C) |  |  |  |  |  |  |  |  |  |  |  |  |  |  | > 256 |
| O=C(c1ccccc1)N1CCN(CC(=O)N2CCCC23Cc2ccccc2NC3=O)CC1 (stereo not given) | 47 |  | 16 (≈ 37 µM) | 32 (≈ 74 µM) | 32 (≈ 74 µM) | 64 (≈ 148 µM) |  |  |  |  |  |  |  |  |  |
| OC(Cn1cncn1)(Cn1cncn1)c1ccc(F)cc1F [FLUCONAZOLE] |  |  | 4 (≈ 13.1 µM) | 8 (≈ 26.1 µM) | 4 (≈ 13.1 µM) | 8 (≈ 26.1 µM) |  |  |  |  | > 256 | > 256 | > 256 | > 256 |  |
| NC(=O)OC[C@H](O)[C@@H](O)[C@H](N)C(=O)N[C@H](C(=O)O)[C@H]1O[C@@H](n2cc(CO)c(=O)[nH]c2=O)[C@H](O)[C@@H]1O [POLYOXIN B] | 86.1 | 90 | 8 (≈ 15.8 µM) | 8 (≈ 15.8 µM) | 8 (≈ 15.8 µM) | 16 (≈ 31.5 µM) | 64 | 64 | 64 | 128 |  |  |  |  |  |
| CCc1ccc(C(=O)N2CCN(CC(=O)N3CCCC34Cc3ccccc3NC4=O)CC2)cc1 (stereo not given) | 52.8 |  | 32 (≈ 69.5 µM) | 128 (≈ 278 µM) | 64 (≈ 139 µM) | 32 (≈ 69.5 µM) |  |  |  |  |  |  |  |  |  |
| O=C(c1ccc(F)cc1)N1CCN(CC(=O)N2CCCC23Cc2ccccc2NC3=O)CC1 (stereo not given) | 76.7 | 130 | 4 (≈ 8.88 µM) | 8 (≈ 17.8 µM) | 8 (≈ 17.8 µM) | 16 (≈ 35.5 µM) | 64 | 64 | 256 | 128 | 64 (≈ 142 µM) | 64 (≈ 142 µM) | 64 (≈ 142 µM) | 64 (≈ 142 µM) | 64 (≈ 142 µM) |
| O=C(c1cccc(Br)c1)N1CCN(CC(=O)N2CCCC23Cc2ccccc2NC3=O)CC1 (stereo not given) | 58.8 | 320 | 8 (≈ 15.6 µM) | 16 (≈ 31.3 µM) | 16 (≈ 31.3 µM) | 32 (≈ 62.6 µM) |  |  |  |  |  |  |  |  |  |
| Cc1cccc(C(=O)N2CCN(CC(=O)N3CCCC34Cc3ccccc3NC4=O)CC2)c1 (stereo not given) | 49.4 |  | 16 (≈ 35.8 µM) | 32 (≈ 71.7 µM) | 32 (≈ 71.7 µM) | 64 (≈ 143 µM) |  |  |  |  |  |  |  |  |  |
| O=C(c1ccccc1Cl)N1CCN(CC(=O)N2CCCC23Cc2ccccc2NC3=O)CC1 (stereo not given) | 61.4 |  | 16 (≈ 34.3 µM) | 16 (≈ 34.3 µM) | 16 (≈ 34.3 µM) | 32 (≈ 68.5 µM) |  |  |  |  |  |  |  |  |  |
| O=C(c1ccccc1I)N1CCN(CC(=O)N2CCCC23Cc2ccccc2NC3=O)CC1 (stereo not given) | 54.2 |  | 8 (≈ 14.3 µM) | 16 (≈ 28.7 µM) | 16 (≈ 28.7 µM) | 32 (≈ 57.3 µM) |  |  |  |  |  |  |  |  |  |
| COc1cccc(C(=O)N2CCN(CC(=O)N3CCCC34Cc3ccccc3NC4=O)CC2)c1 (stereo not given) | 50.7 |  | 32 (≈ 69.2 µM) | 64 (≈ 138 µM) | 32 (≈ 69.2 µM) | 128 (≈ 277 µM) |  |  |  |  |  |  |  |  |  |
